The values that follow come from ChEMBL document CHEMBL1697731, “Cheminformatics analysis of assertions mined from literature that describe drug-induced liver injury in different species” (Chem Res Toxicol, 2010).

Series [1] has as its system Hepatotoxicity. In words: Literature-mined compound from Fourches et al multi-species drug-induced liver injury (DILI) dataset, effect in humans. The conditions noted are these: human.
The test system of series [2] is Hepatotoxicity. In words: Literature-mined compound from Fourches et al multi-species drug-induced liver injury (DILI) dataset, effect in rodents. The conditions noted are these: rodentia.
Series [3] relates to Hepatotoxicity. Put plainly: Literature-mined compound from Fourches et al multi-species drug-induced liver injury (DILI) dataset, effect in non-rodents.

The structures appear in SMILES notation. Where a SMILES comes first, the peptide text is derived from it. Bridges are numbered along the chain shown (N, C = ends). [ ]: non-standard residue; d: D form. The star is where a group is joined. Threoninol(2S,3R) = C[C@@H](O)[C@H](CO)N*

Turning to `CC(C)(C)NC(=O)[C@@H]1C[C@@H]2CCCC[C@@H]2CN1C[C@@H](O)[C@H](Cc1ccccc1)NC(=O)[C@H](CC(N)=O)NC(=O)c1ccc2ccccc2n1`, the Hepatotoxicity entry in the series on Hepatotoxicity [1] (Liver) is reported as “drug-induced liver injury reported”; in the series on Hepatotoxicity [2] (Liver), “no drug-induced liver injury reported”; in the series with Hepatotoxicity [3] (Liver), “no drug-induced liver injury reported”.
On to `CCN(CC)Cc1cc(Nc2ccnc3cc(Cl)ccc23)ccc1O.Cl`, for which the Hepatotoxicity result in the series on Hepatotoxicity [1] (Liver) is on record as “drug-induced liver injury reported”; in the series on Hepatotoxicity [2] (Liver) it was “drug-induced liver injury reported”; in the series on Hepatotoxicity [3] (Liver), “no drug-induced liver injury reported”.
As for `CCC[C@H](NC(=O)[C@@H]1[C@H]2CCC[C@H]2CN1C(=O)[C@@H](NC(=O)[C@@H](NC(=O)c1cnccn1)C1CCCCC1)C(C)(C)C)C(=O)C(=O)NC1CC1`, the values for the Hepatotoxicity result in the series on Hepatotoxicity [1], with Hepatotoxicity [2] and in the series with Hepatotoxicity [3] were “drug-induced liver injury reported”, “no drug-induced liver injury reported” and “no drug-induced liver injury reported”, respectively.
`O=C(O)C(S)C(S)C(=O)O` (stereo not drawn): the Hepatotoxicity entry in the series on Hepatotoxicity [1] was “drug-induced liver injury reported”; with Hepatotoxicity [2], “drug-induced liver injury reported”; in the series on Hepatotoxicity [3], “no drug-induced liver injury reported”.
In the case of `C[C@@H](O)[C@H](CO)NC(=O)[C@@H]1CSSC[C@H](NC(=O)[C@H](N)Cc2ccccc2)C(=O)N[C@@H](Cc2ccccc2)C(=O)N[C@H](Cc2c[nH]c3ccccc23)C(=O)N[C@@H](CCCCN)C(=O)N[C@@H]([C@@H](C)O)C(=O)N1` (H-[dF]CF[dW]KTC-{Threoninol(2S,3R)}; disulfide 2-7), the figures for the Hepatotoxicity result with Hepatotoxicity [1], in the series with Hepatotoxicity [2] and in the series with Hepatotoxicity [3] were “drug-induced liver injury reported”, “drug-induced liver injury reported” and “no drug-induced liver injury reported”, respectively.
For the compound `CN1[C@@H]2CC[C@H]1C[C@@H](OC(=O)C(CO)c1ccccc1)C2` (mixture of isomers) [ATROPINE], the Hepatotoxicity entry is on record as “no drug-induced liver injury reported” with Hepatotoxicity [1] (Liver), “drug-induced liver injury reported” in the series with Hepatotoxicity [2] (Liver) and “no drug-induced liver injury reported” with Hepatotoxicity [3] (Liver).
Regarding `CCN(CC)CCOc1ccc(C(=C(Cl)c2ccccc2)c2ccccc2)cc1` (stereo in doubt; form 1) [CLOMIPHENE], the Hepatotoxicity result was “drug-induced liver injury reported” in the series on Hepatotoxicity [1], “no drug-induced liver injury reported” in the series on Hepatotoxicity [2] and “no drug-induced liver injury reported” with Hepatotoxicity [3].
Take `C[C@]12CCC(=O)C=C1CC[C@@H]1[C@@H]2CC[C@@]2(C)[C@H]1CC[C@]2(C)O` (stereo in doubt; form 1) [METHYLTESTOSTERONE]: the Hepatotoxicity result was “no drug-induced liver injury reported” in the series on Hepatotoxicity [1], “drug-induced liver injury reported” with Hepatotoxicity [2] and “no drug-induced liver injury reported” with Hepatotoxicity [3].
Consider `CC(=O)[C@H]1CC[C@H]2[C@@H]3CCC4=CC(=O)CC[C@]4(C)[C@H]3CC[C@]12C` (stereo in doubt; form 1) [PROGESTERONE], for which the Hepatotoxicity entry in the series with Hepatotoxicity [1], in the series with Hepatotoxicity [2] and in the series on Hepatotoxicity [3] was “drug-induced liver injury reported” throughout.
Regarding `COc1cc2c(cc1O)CC[C@@H]1[C@@H]2CC[C@]2(C)[C@@H](O)CC[C@@H]12` [2-METHOXYESTRADIOL], the results for the Hepatotoxicity result in the series on Hepatotoxicity [1], with Hepatotoxicity [2] and with Hepatotoxicity [3] were “drug-induced liver injury reported”, “drug-induced liver injury reported” and “no drug-induced liver injury reported”, respectively.
On to `O=c1[nH]cc(Br)c(=O)[nH]1` [5-BROMOURACIL], for which the Hepatotoxicity result in the series on Hepatotoxicity [1] is “no drug-induced liver injury reported”; in the series on Hepatotoxicity [2] it was “drug-induced liver injury reported”; in the series on Hepatotoxicity [3], “no drug-induced liver injury reported”.
